Tests used:
KRas^G12D = target: T1, KRas^G12D (Homo sapiens, UniProt P01116, G12D); assay: KRas binding assay (TR-FRET tracer displacement), KRas G12D
T1 construct: Biotinylated KRas (corresponding to amino acids 1-169, produced at Accelegan Inc.); biotin (biotinylated); purchased Accelegan Inc

KRas^G12R = target: T2, KRas^G12R (Homo sapiens, UniProt P01116, G12R); assay: KRas binding assay (TR-FRET tracer displacement), KRas G12R
T2 construct: Biotinylated KRas (corresponding to amino acids 1-169, produced at Accelegan Inc.); biotin (biotinylated); purchased Accelegan Inc
T2 sequence (P01116 1-169 isoform P01116-2 G12R): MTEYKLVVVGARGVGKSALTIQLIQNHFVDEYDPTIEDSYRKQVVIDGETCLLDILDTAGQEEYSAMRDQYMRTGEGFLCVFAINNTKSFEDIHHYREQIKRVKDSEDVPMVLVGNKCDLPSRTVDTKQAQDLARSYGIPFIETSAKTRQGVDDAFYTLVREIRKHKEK

KRas^G12V = target: T3, KRas^G12V (Homo sapiens, UniProt P01116, G12V); assay: KRas binding assay (TR-FRET tracer displacement), KRas G12V
T3 construct: Biotinylated KRas (corresponding to amino acids 1-169, produced at Accelegan Inc.); biotin (biotinylated); purchased Accelegan Inc
T3 sequence (P01116 1-169 isoform P01116-2 G12V): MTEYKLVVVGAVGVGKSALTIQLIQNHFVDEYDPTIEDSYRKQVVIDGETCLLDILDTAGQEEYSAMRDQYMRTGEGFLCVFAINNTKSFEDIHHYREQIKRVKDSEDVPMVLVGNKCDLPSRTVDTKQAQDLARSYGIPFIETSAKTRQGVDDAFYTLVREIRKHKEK

[1] = test system: KRas-mediated phosphorylation of ERK in MKN1 cells; assay: Inhibition of KRas-mediated phosphorylation of ERK (Cisbio HTRF pERK), MKN1 cells; assay type: cell-based; settings: Homo sapiens, MKN-1
Method in brief: (§1)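 Phospho-ERK is quantified by HTRF with the Advanced pERK kit. Cells go in at 6,000/well in RPMI plus 10% FBS overnight at 37° C. under 5% CO2, with a 4-hour covered room-temperature incubation ahead of the read.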

[2] = test system: KRas-mediated phosphorylation of ERK in PSN1 cells; assay: Inhibition of KRas-mediated phosphorylation of ERK (Cisbio HTRF pERK), PSN1 cells; assay type: cell-based; settings: Homo sapiens
Method in brief: as §1

[3] = test system: KRas-mediated phosphorylation of ERK in AsPC-1 cells; assay: Inhibition of KRas-mediated phosphorylation of ERK (Cisbio HTRF pERK), AsPC-1 cells; assay type: cell-based; settings: Homo sapiens, ASPC1, AsPC-1 cells; HTRF pERK
Method in brief: (§2)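 A cell-based HTRF pERK assay: ten-point, threefold titrations beginning at 10 uM were applied for 3 hrs, with 0.2 uM Trametinib wells as the minimum control. Cells were lysed cold, and lysate was incubated with the antibody pair for 2 hrs before reading.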

[4] = test system: KRas-mediated phosphorylation of ERK in H727 cells; assay: Inhibition of KRas-mediated phosphorylation of ERK (Cisbio HTRF pERK), H727 cells; assay type: cell-based; settings: Homo sapiens, NCI-H727, H727 cells; HTRF pERK
Method in brief: as §2

[5] = test system: KRas-mediated phosphorylation of ERK in H460 cells; assay: Inhibition of KRas-mediated phosphorylation of ERK (Cisbio HTRF pERK), H460 cells; assay type: cell-based; settings: Homo sapiens; for inhibition at 0.1 µM: NCI-H460, 3 h, single point, 100 nM compound, 3 hrs; for IC50: NCI-H460, HTRF pERK
Method in brief: as §2

[6] = test system: KRas-mediated phosphorylation of ERK in HCT116 cells; assay: Inhibition of KRas-mediated phosphorylation of ERK (Cisbio HTRF pERK), HCT116 cells; assay type: cell-based; settings: Homo sapiens; for inhibition at 0.1 µM: HCT-116, 3 h, single point, 100 nM compound, 3 hrs; for IC50: HCT-116, HTRF pERK
Method in brief: (§3)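 Compound treatment lasts 3 hrs on 6,000 seeded cells, testing 10 doses from a 10 uM top concentration in 3-fold decrements at 0.8% final DMSO. Trametinib at 0.2 uM defines the Min signal. Detection is HTRF on cold-lysed cell extracts.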

[7] = test system: KRas-mediated phosphorylation of ERK in A549 cells; assay: Inhibition of KRas-mediated phosphorylation of ERK (Cisbio HTRF pERK), A549 cells; assay type: cell-based; settings: Homo sapiens, HTRF pERK
Method in brief: as §3

T1 sequence (P01116 1-169 isoform P01116-2 G12D): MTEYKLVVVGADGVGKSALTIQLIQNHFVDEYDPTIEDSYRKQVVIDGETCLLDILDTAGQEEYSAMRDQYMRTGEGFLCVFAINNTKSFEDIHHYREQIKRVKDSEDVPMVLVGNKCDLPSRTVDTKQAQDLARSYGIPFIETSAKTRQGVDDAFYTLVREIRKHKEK

Compound	IC50 (KRas^G12D) [nM]	IC50 (KRas^G12R) [nM]	IC50 (KRas^G12V) [nM]	IC50 [1] [nM]	IC50 [2] [nM]	IC50 [3] [nM]	IC50 [4] [nM]	IC50 [7] [nM]	IC50 [6] [nM]	IC50 [5] [nM]	inhibition at 0.1 µM [5] [%]	inhibition at 0.1 µM [6] [%]
CCc1c(F)ccc2c(Br)c(O)cc(-c3ncc4c(N5C[C@@H]6C[C@H](C5)[C@H](O)C6)nc(OC[C@@]56CCCN5C[C@H](F)C6)nc4c3F)c12 [Example 537, (1R,5R,6R)-3-(7-(4-bromo-8-ethyl-7-fluoro-3-hydroxynaphthalen-1-yl)-8-fluoro-2-(((2R,7aS)-2-fluorohexahydro-1H-pyrrolizin-7a-yl)methoxy)pyrido[4,3-d]pyrimidin-4-yl)-3-azabicyclo[3.2.1]octan-6-ol]	407	263	244	1480	> 10000	2020	1180	–	–	–	29	2
CCc1c(F)ccc2cc(O)cc(-c3ncc4c(/C=C/c5ccnn5C)nc(OC[C@@]56CCCN5C[C@H](F)C6)nc4c3F)c12 [Example 543, 5-ethyl-6-fluoro-4-(8-fluoro-2-(((2R,7aS)-2-fluorotetrahydro-1H-pyrrolizin-7a(5H)-yl)methoxy)-4-((E)-2-(1-methyl-1H-pyrazol-5-yl)vinyl)pyrido[4,3-d]pyrimidin-7-yl)naphthalen-2-ol]	1690	354	152	5950	> 10000	> 10000	1610	–	–	–	-1	5
CCc1c(F)ccc2cc(O)cc(-c3ncc4c(N5CCC6CCC(C6)C5)nc(OC[C@@]56CCCN5C[C@H](F)C6)nc4c3F)c12 (stereo partly drawn) [Example 550, 4-(4-(3-azabicyclo[4.2.1]nonan-3-yl)-8-fluoro-2-(((2R,7aS)-2-fluorotetrahydro-1H-pyrrolizin-7a(5H)-yl)methoxy)pyrido[4,3-d]pyrimidin-7-yl)-5-ethyl-6-fluoronaphthalen-2-ol]	47	8	14	645	> 10000	590	293	423	1370	–	–	–
CCc1c(F)ccc2cc(O)cc(-c3ncc4c(N5CCCC(O)(C(N)=O)C5)nc(OC[C@@]56CCCN5C[C@H](F)C6)nc4c3F)c12 (stereo partly drawn) [Example 574, 1-(7-(8-ethyl-7-fluoro-3-hydroxynaphthalen-1-yl)-8-fluoro-2-(((2R,7aS)-2-fluorohexahydro-1H-pyrrolizin-7a-yl)methoxy)pyrido[4,3-d]pyrimidin-4-yl)-3-hydroxypiperidine-3-carboxamide]	7	7	5	78	> 10000	3420	1130	–	–	–	19	18
CCc1c(F)ccc2cc(O)cc(-c3ncc4c(N5CCCO[C@@H](CCO)C5)nc(OC[C@@]56CCCN5C[C@H](F)C6)nc4c3F)c12 [Example 578, 5-ethyl-6-fluoro-4-(8-fluoro-2-(((2R,7aS)-2-fluorohexahydro-1H-pyrrolizin-7a-yl)methoxy)-4-((S)-2-(2-hydroxyethyl)-1,4-oxazepan-4-yl)pyrido[4,3-d]pyrimidin-7-yl)naphthalen-2-ol]	5	2	8	1	> 10000	294	258	467	–	125	–	–
CCc1c(F)ccc2cc(O)cc(-c3ncc4c(N5CC6CCC(CC6)C5)nc(OC[C@@]56CCCN5C[C@H](F)C6)nc4c3F)c12 [Example 844, 4-(4-(3-azabicyclo[3.2.2]nonan-3-yl)-8-fluoro-2-(((2R,7aS)-2-fluorotetrahydro-1H-pyrrolizin-7a(5H)-yl)methoxy)pyrido[4,3-d]pyrimidin-7-yl)-5-ethyl-6-fluoronaphthalen-2-ol]	103	46	35	198	> 10000	3330	2900	–	–	–	–	–

Further lines, with some results ahead:

IC50 (KRas^G12D) [nM]	IC50 (KRas^G12R) [nM]	IC50 (KRas^G12V) [nM]	IC50 [1] [nM]	IC50 [2] [nM]	IC50 [3] [nM]	IC50 [4] [nM]	IC50 [7] [nM]	IC50 [6] [nM]	IC50 [5] [nM]	Compound	inhibition at 0.1 µM [5] [%]	inhibition at 0.1 µM [6] [%]
160	41	39	527	> 10000	1370	1170	–	–	–	CCc1c(F)ccc2cc(O)cc(-c3ncc4c(N5CCC(C)C(F)(F)CC5)nc(OC[C@@]56CCCN5C[C@H](F)C6)nc4c3F)c12 (stereo partly drawn) [Example 581, 4-(4-(4,4-difluoro-5-methylazepan-1-yl)-8-fluoro-2-(((2R,7aS)-2-fluorotetrahydro-1H-pyrrolizin-7a(5H)-yl)methoxy)pyrido[4,3-d]pyrimidin-7-yl)-5-ethyl-6-fluoronaphthalen-2-ol]	-24	21
323	74	64	926	> 10000	2070	3090	–	–	–	CCc1c(F)ccc2cc(O)cc(-c3ncc4c(N5CCC(Cn6cccn6)C5)nc(OC[C@@]56CCCN5C[C@H](F)C6)nc4c3F)c12 (stereo partly drawn) [Example 587, 4-(4-(3-((1H-pyrazol-1-yl)methyl)pyrrolidin-1-yl)-8-fluoro-2-(((2R,7aS)-2-fluorotetrahydro-1H-pyrrolizin-7a(5H)-yl)methoxy)pyrido[4,3-d]pyrimidin-7-yl)-5-ethyl-6-fluoronaphthalen-2-ol]	6	-12
14	7	12	26	> 10000	376	300	344	–	133	CCc1c(F)ccc2cc(O)cc(-c3ncc4c(N5CCCOC(CCOC)C5)nc(OC[C@@]56CCCN5C[C@H](F)C6)nc4c3F)c12 (stereo partly drawn) [Example 601, 5-ethyl-6-fluoro-4-(8-fluoro-2-(((2R,7aS)-2-fluorohexahydro-1H-pyrrolizin-7a-yl)methoxy)-4-(2-(2-methoxyethyl)-1,4-oxazepan-4-yl)pyrido[4,3-d]pyrimidin-7-yl)naphthalen-2-ol]	–	–
14	3	< 2	256	> 10000	1320	162	847	2410	–	CCc1c(F)ccc2cc(O)cc(-c3ncc4c(N[C@@H](C)c5cc(C(=O)N(C)C)nn5C)nc(OC[C@@]56CCCN5C[C@H](F)C6)nc4c3F)c12 [Example 650, 5-((S)-1-((7-(8-ethyl-7-fluoro-3-hydroxynaphthalen-1-yl)-8-fluoro-2-(((2R,7aS)-2-fluorohexahydro-1H-pyrrolizin-7a-yl)methoxy)pyrido[4,3-d]pyrimidin-4-yl)amino)ethyl)-N,N,1-trimethyl-1H-pyrazole-3-carboxamide]	–	–
7	2	6	5	> 10000	567	351	152	–	–	CCc1c(F)ccc2cc(O)cc(-c3ncc4c(N5CCCC(N6CCCCS6(=O)=O)C5)nc(OC[C@@]56CCCN5C[C@H](F)C6)nc4c3F)c12 (stereo partly drawn) [Example 664, 2-(1-(7-(8-ethyl-7-fluoro-3-hydroxynaphthalen-1-yl)-8-fluoro-2-(((2R,7aS)-2-fluorohexahydro-1H-pyrrolizin-7a-yl)methoxy)pyrido[4,3-d]pyrimidin-4-yl)piperidin-3-yl)-1,2-thiazinane 1,1-dioxide]	–	–
16	15	10	222	> 10000	508	1030	–	–	–	CCc1c(F)ccc2cc(O)cc(-c3ncc4c(N5CCCC6(CCS6)C5)nc(OC[C@@]56CCCN5C[C@H](F)C6)nc4c3F)c12 (stereo partly drawn) [Example 838, 5-ethyl-6-fluoro-4-(8-fluoro-2-(((2R,7aS)-2-fluorotetrahydro-1H-pyrrolizin-7a(5H)-yl)methoxy)-4-(1-thia-6-azaspiro[3.5]nonan-6-yl)pyrido[4,3-d]pyrimidin-7-yl)naphthalen-2-ol]	–	–

— US20260015350A1, “AZAQUINAZOLINE PAN-KRAS INHIBITORS” (Mirati Therapeutics, Inc., priority 2022, published 2026)
